Six molecules from patent US5089516A, “1-phenyl-3,5-pyrazolidinedione hydroxystyrene compounds which have tyrosine kinase inhibiting activity” (Kanegafuchi Kagaku Kogyo Kabushiki Kaisha, priority 1987, dated 1992) can be followed below.

In brackets after ≈: the same amount, converted by molar mass. Several values for one entry are separate records, joined by “and”; a condition that tells them apart may be missing. Equal values may be shown once. Some results are limits rather than exact numbers.

Data set [1] relates to Micrococcus luteus IFO 13867. Description: Antibacterial activity (MIC) against Micrococcus luteus IFO 13867. Type of data set: cell-based. Conditions: IFO13867, 37° C., 18 to 20 hours. As to the method: (§1) The antibacterial activity against Gram-positive bacteria of the compound of the present invention was measured according to a standard method of Nippon Kagaku Ryoho Gakkai [Nippon Kagaku Ryoho Gakkaishi (Journal of the Chemical therapy of Japan), 29, 76(1981)].
(§2) As for gram-positive bacteria, after cultivation in Meuller Hinton broth medium (made by Difco Co., Ltd.), there was prepared a bacterial suspension for inoculation containing about 10^6 of the bacteria per 1 ml of the Meuller Hinton broth medium. On the other hand, the test compound was added to Mueller Hinton agar medium (made by Difco Co., Ltd.) so as to give agar plate medium containing test samples which are twofold serial diluted. Then, the above-mentioned bacterial suspension for inoculation was streaked to each agar medium for about 2 cm with a looped nichrome wire (inner diameter: about 1 mm).
(§3) After that the each agar plate medium was cultured at 37° C. for 18 to 20 hours, the growth of the test bacteria was determined.

In data set [2] the test system is Bacillus subtilis IFO 3134. The experiment in a line: Antibacterial activity (MIC) against Bacillus subtilis IFO 3134. Type of data set: cell-based. The conditions noted are these: IFO3134, 37° C., 18 to 20 hours. As to the method:
as §1, §2, §3

Data set [3] has as its system Staphylococcus aureus IFO 12732. Description: Antibacterial activity (MIC) against Staphylococcus aureus IFO 12732. The conditions noted are these: IFO12732, 37° C., 18 to 20 hours. Format: cell-based. On the procedure: as §1, §2, §3
Data set [4] has as its system Nycobacterium smegmatis ATCC 607. The experiment in a line: Antibacterial activity (MIC) against acid-fast bacteria. Format: cell-based. Conditions: 37° C., 40 to 42 hours. On the procedure:
As for acid-fast bacteria, after cultured in glycerol broth medium, there was prepared a bacterial suspension for inoculation containing about 10^6 of the bacteria per 1 ml of the medium. On the other hand, there were prepared some glycerol Czapek agar plating media with adding the test compounds, and thereto the bacterial suspension for inoculation was streaked.

The target of data set [5] is T1, epidermal growth factor receptor-tyrosine kinase complex (Homo sapiens, UniProt P00533).
T1 construct: The membrane preparation was employed in the following measurement without solubilization; endogenous in cells; host or cells: A-431 (ATCC CRL1555), membrane preparation, not solubilized
T1 sequence (P00533 25-1210, one chain of several): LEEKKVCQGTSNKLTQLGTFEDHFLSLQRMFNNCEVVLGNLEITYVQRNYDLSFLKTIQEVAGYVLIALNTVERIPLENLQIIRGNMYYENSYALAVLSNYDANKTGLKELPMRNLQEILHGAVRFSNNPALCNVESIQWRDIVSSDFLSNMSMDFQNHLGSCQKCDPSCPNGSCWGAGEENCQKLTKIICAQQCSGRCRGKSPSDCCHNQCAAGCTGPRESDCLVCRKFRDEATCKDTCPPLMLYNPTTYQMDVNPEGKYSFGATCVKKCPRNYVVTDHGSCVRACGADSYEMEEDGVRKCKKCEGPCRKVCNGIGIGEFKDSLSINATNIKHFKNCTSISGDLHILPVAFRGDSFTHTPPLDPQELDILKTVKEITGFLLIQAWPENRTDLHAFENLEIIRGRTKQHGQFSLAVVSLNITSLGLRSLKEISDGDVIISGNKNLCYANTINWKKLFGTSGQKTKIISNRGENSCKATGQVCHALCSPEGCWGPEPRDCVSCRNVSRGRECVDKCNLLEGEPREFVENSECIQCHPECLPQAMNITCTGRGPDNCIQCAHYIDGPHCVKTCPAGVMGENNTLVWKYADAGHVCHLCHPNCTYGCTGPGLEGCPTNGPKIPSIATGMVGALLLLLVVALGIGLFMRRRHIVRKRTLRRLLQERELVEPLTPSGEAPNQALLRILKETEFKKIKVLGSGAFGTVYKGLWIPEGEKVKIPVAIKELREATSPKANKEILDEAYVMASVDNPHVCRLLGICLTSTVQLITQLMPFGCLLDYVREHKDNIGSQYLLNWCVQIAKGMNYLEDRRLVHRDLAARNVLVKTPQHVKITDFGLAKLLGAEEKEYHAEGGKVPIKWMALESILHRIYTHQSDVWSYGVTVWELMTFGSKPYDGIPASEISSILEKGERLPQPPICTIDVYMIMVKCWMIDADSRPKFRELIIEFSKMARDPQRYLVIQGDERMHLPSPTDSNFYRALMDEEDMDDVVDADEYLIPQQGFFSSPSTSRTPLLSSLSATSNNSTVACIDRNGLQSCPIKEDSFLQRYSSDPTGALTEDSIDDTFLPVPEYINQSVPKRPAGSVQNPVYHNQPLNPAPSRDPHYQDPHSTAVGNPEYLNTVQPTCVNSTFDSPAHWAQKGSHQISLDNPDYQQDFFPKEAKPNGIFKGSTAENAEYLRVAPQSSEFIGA
Description: Tyrosine kinase inhibiting activity (A-431 membrane preparation, EGF-stimulated). Format: biochemical. Conditions: 1 μM in the reaction mixture; read-out: Tyrosine kinase inhibition rate. As to the method:
Tyrosine kinase inhibiting activity of the compound of the present invention was measured referring to a method for measuring tyrosine kinase activity by G. Carpenter or by S. Cohen et al. [J. Biol. Chem., 254, 4884(1979); J. Biol. Chem., 257, 1528(1982)].
Cell line A-431 derived from human carcinoma (ATCC CRL1555) was cultured at 37° C. under the condition of 5% CO2 in Dulbecco's modified Eagle's medium (made by NISSUE PHARMACEUTICAL CO., LTD.) containing 10% by volume fetal bovine serum, 50 μg/ml of streptomycin, 50 IU/ml of penicillin G and 50 μg/ml of kanamycin. […] The membrane preparation was employed in the following measurement without solubilization.
A test compound dissolved in dimethylsulfoxide (hereinafter referred to as "DMSO") was added to a mixture of 20 mM of N-2-hydroxyethylpiperazine-N'-2-ethanesulfonic acid buffer (pH 7.4), 1 mM of MnCl2, 7.5 μg of bovine serium albumin and the membrane preparation (10 μg as protein). After incubation at 0° C. for 5 minutes, 100 ng of epidermal growth factor (hereinafter referred to as "EGF") was added thereto and the mixture was further incubated at 0° C. for 15 minutes. [γ-^32 P]ATP (3000 Ci/mmol, 0.1 μCi) was added thereto to make final volume of 70 μl. After incubation at 0° C. for 15 minutes, 50 μl of the reaction mixture was soaked into Whatman 3 MM filter paper (made by Whatman Ltd.) and immediately the reaction was stopped by an aqueous solution of 10% by weight trichloroacetic acid containing 10 mM sodium pyrophosphate. The filter paper was sufficiently washed with the same solution and then washed with ethanol, and dried. Radioactivity present in the filter paper was measured by liquid scintillation counter (A). Also, radioactivity was measured in case of the reaction without EGF (B), the reaction without the test compound (C), and the reaction without both EGF and the test compound (D) as a control.
Tyrosine kinase inhibition rate (%) was calculated by the following equation. [formula]

In data set [6] the target is T2, reverse transcriptase derived from Moloney-Murine Leukemia Virus (M-MLV) (Moloney murine leukemia virus, UniProt P03355).
T2 construct: reverse transcriptase derived from Moloney-Murine Leukemia Virus; purchased Pharmacia K. K
The experiment in a line: Inhibiting activity against reverse transcriptase derived from M-MLV. The conditions noted are these: read-out: Inhibition rate (reverse transcriptase derived from M-MLV); for inhibition at 1 µM: 1 μM in the reaction mixture. Type of data set: biochemical. As to the method: There was found the following point by using reverse transcriptase derived from Moloney-Murine Leukemia Virus (hereinafter referred to as "M-MLV").
The compound of the present invention was dissolved in DMSO to give a 100 mM solution thereof. Then, the solution was diluted with distilled water containing DMSO to give a solution of the test compound having a defined concentration. A mixed ratio of DMSO and distilled water was adjusted so that the concentration of DMSO at this time is 10% by volume and a final concentration of DMSO at the beginning of a reaction is 1% by volume.
The thus prepared solution of the test compound was mixed with a solution containing 50 mM of Tris--HCl buffer (pH 8.3), 8 mM of MgCl2, 30 mM of NaCl, 50 mM of dithiothreitol (made by Wako Pure Chemical Industries Ltd.), 0.2 mM of thymidine-5'-triphosphate (made by Pharmacia K. K.) and 6 U/ml of reverse transciptase derived from M-MLV (made by Pharmacia K. K.), and preincubated at 37° C. for 30 minutes. After there was added thereto 10 μg/ml of polyadenylic acid (made by PL Biochemicals Co., Ltd.), 0.01 U/ml of oligodeoxy thymidylic acid (made by Pharmacia K. K.) and 10 μCi/ml of [methyl-^3 H] thymidine-5'-triphosphate (made by Amersham Japan Co., Ltd., 47 Ci/mmol) to give a reaction mixture, the mixture was further incubated at 37° C. for 30 minutes, followed by cooling with ice to stop the reaction.
The radioactivity incorporated into deoxyribonucleic acids was measured according to the method of Linteril et al (Science 170, 447 to 449 (1967)). A defined volume of the reaction mixture was soaked into DE-81 filter paper (made by Whatman Ltd.), the filter paper was washed with 5% by weight of Na2 HPO4 solution for three times, and with distilled water and ethanol successively, and then dried. Radioactivity contained in the filter paper was measured by liquid scintillation counter to give the each radioactivity of the test solution groups.
On the other hand, the same procedure as above was carried out using DMSO-distilled water without the test compound instead of using the test solution, to give the value of radioactivity of a control group.
Reverse transcriptase derived from M-MLV inhibition rate (%) was calculated by the following equation. [formula]

Data set [7] has as its target T3, 5-lipoxygenase (Cavia porcellus, UniProt A0A286X958).
T3 construct: The cytosol fraction was used as an enzyme solution; from tissue; host or cells: peritoneal exudate cells of casein-injected Hartley guinea pigs, 105,000×g cytosol
T3 sequence (A0A286X958 1-674): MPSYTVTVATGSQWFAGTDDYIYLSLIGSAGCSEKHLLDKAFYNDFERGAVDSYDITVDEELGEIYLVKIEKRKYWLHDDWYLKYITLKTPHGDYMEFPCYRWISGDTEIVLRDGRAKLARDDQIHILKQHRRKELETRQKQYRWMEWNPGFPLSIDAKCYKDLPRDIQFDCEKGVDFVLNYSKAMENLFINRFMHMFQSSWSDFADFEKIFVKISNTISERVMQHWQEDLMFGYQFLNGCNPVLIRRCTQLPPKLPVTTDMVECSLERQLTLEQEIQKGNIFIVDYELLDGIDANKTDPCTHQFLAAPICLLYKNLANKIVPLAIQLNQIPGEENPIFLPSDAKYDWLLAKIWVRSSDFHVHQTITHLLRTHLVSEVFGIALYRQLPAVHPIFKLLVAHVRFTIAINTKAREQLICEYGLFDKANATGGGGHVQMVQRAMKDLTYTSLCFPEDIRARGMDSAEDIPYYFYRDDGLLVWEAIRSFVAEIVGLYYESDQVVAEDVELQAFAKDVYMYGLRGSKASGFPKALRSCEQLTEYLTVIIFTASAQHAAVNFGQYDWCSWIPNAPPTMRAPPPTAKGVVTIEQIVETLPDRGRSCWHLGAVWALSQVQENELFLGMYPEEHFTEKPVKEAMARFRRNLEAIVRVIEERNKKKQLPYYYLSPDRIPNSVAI
Description: 5-Lipoxygenase inhibiting activity (5-HETE formation, cytosol of peritoneal exudate cells). Type of data set: biochemical, Hartley guinea pigs. Conditions: 10 μM in the reaction mixture; read-out: Inhibition rate (5-lipoxygenase). On the procedure: 5-Lipoxygenase inhibiting activity of the compound of the present invention was measured referring to the method for measuring 5-lipoxygenase activity by K. Ochi et al. [Journal of Biological Chemistry (J. Biol. Chem.), 258, 5754(1983)].
Sterilized 2% solution of casein (pH 7) was injected intraperitoneally into Hartley guinea pigs in a volume of 5 ml/100 g body weight. Fifteen hours later, the guinea pigs were killed and peritoneal exudate cells thereof were collected. After the exudate cells were washed with 17 mM Tris--HCl buffer (pH 7.4) containing 0.74% ammonium to remove contaminating erythrocytes in the exudate cells suspension, the cells were washed with buffer A (130 mM NaCl, 1 mM EDTA, 25 mM sodium phosphate, pH 7.4). The washed cells were suspended in buffer B (50 mM sodium phosphate, 1 mM EDTA, 0.1% gelatin, pH 7.4) at 10^8 cells/ml, sonicated and centrifuged at 10,000×g for 20 minutes under the cold atmosphere. The obtained supernatant was further centrifuged at 105,000×g for 60 minutes under the cold atmosphere. The cytosol fraction was used as an enzyme solution.
The enzyme solution was preincubated with the […] in the presence of 1 mM CaCl2, 1 mM reduced gluthathione (GSH) and 2 mM ATP at 30° C. for 5 minutes in 0.2 ml of a reaction mixture and the mixture was further incubated at 30° C. for 5 minutes by adding 20 μM [1-^14 C] arachidonic acid (0.1 μCi) thereto. The test compounds were dissolved in ethanol to give the reaction mixture containing 2% ethanol as a final concentration. Only ethanol was added to the reaction mixture as a control group.
To the reaction mixture were added 2.5 ml of a mixture of chloroform and methanol (2/1 by volume) and 0.3 ml of 40 mM citric acid to stop the reaction. The mixture was vortexed and an organic solvent layer was evaporated to dryness under nitrogen gas. After dissolving the dried organic layer in a fixed amount of the mixture of chloroform and methanol (2/1 by volume), it was spotted on a silica gel plate (Kiesel gel 60F254, E. Merck) and products were separated using a developer (the organic solvent layer of ethyl acetate/water/2,2,4-trimethylpentane/acetic acid=11/10/5/2 by volume). After the radioactive position of the product was determined by means of a radioautography, an area equivalent to that of 5-hydroxyeicosatetraenoic acid (hereinafter referred to as "5-HETE") was scraped off, and then its radioactivity was measured with a liquid scintillation counter. With regarding the amount of the generated 5-HETE as the 5-lipoxygenase inhibiting activity, the inhibition rate (%) in comparison with the control group was calculated according to the following equation. [formula]

Data set [8] is described as follows: UV absorption spectrum. Format: physicochemical. Conditions: in methanol; for molar extinction coefficient: at the λ max of the same line. As to the method: Each UV absorption spectrum of the compounds of the present invention was measured according to the conventional method, in which methanol was used as a solvent, and thereby molar extinction coefficient thereof was calculated.

In general, MIC refers to the lowest concentration that inhibits growth of the organism. By inhibition is commonly meant the drop in the measured response relative to a control, in per cent.

For the molecule `O=C1NC(=S)SC1=Cc1cc(-c2ccccc2)c(O)c(-c2ccccc2)c1` [Compound 1], the MIC was at most 6 µg/mL in data set [1], at most 6 µg/mL in data set [2], 12 µg/mL (≈ 30.8 µM) in data set [3] and 6 µg/mL (≈ 15.4 µM) in data set [4]. Moreover, the inhibition at 1 µM turned out to be 23% in data set [5] and 96% in data set [6].

As for `O=C1Nc2ccccc2C1=Cc1cc(Cc2ccccc2)c(O)c(Cc2ccccc2)c1` [Compound 4], the inhibition at 10 µM in data set [7] amounted to 85%. In addition, in data set [1], the minimum inhibitory concentration (MIC) was at most 6 µg/mL. The inhibition at 1 µM in data set [5] was found to be 74%. For the same molecule, in data set [8], the λ max was 257 nm and 361 nm; the molar extinction coefficient was 1.87 × 10^4 and 1.80 × 10^4.

Consider `N#CC(=Cc1cc(-c2ccccc2)c(O)c(-c2ccccc2)c1)C(N)=O` [Compound 15], for which the MIC in data set [1] was 60 µg/mL (≈ 176 µM); in data set [2] it was 100 µg/mL (≈ 294 µM); in data set [3] it was 60 µg/mL (≈ 176 µM); in data set [4], at most 15 µg/mL. Also, the inhibition at 1 µM in data set [5] stood at 100%. The λ max in data set [8] was 271 nm and 348 nm. Besides, in data set [8], the molar extinction coefficient was 2.04 × 10^4 and 2.11 × 10^4. Also, the inhibition at 10 µM in data set [6] (10 μM in the reaction mixture) was found to be 59%.

Consider `N#CC(=Cc1cc(Cc2ccccc2)c(O)c(Cc2ccccc2)c1)C(N)=O` [Compound 16], for which the inhibition at 10 µM in data set [7] turned out to be 28%. Besides, the minimal inhibitory concentration (MIC) in data set [1], in data set [2], in data set [3] and in data set [4] was at most 15 µg/mL each time. Besides, in data set [5], the inhibition at 1 µM amounted to 100%. Besides, the λ max in data set [8] was 249 nm and 347 nm. Besides, in data set [8], the molar extinction coefficient was 1.51 × 10^4 and 2.40 × 10^4.

Regarding `O=C1NCCC1=Cc1cc(Cc2ccccc2)c(O)c(Cc2ccccc2)c1` [Compound 18], the inhibition at 1 µM in data set [5] was 87%. Moreover, in data set [8], the λ max amounted to 304 nm and the molar extinction coefficient is reported as 1.87 × 10^4.

Consider `O=C1NN(c2ccccc2)C(=O)C1=Cc1cc(-c2ccccc2)c(O)c(-c2ccccc2)c1` [Compound 19], for which the MIC in data set [1] is 50 µg/mL (≈ 116 µM); in data set [2] it was 100 µg/mL (≈ 231 µM); in data set [3] it was 100 µg/mL (≈ 231 µM); in data set [4] it was at most 6 µg/mL. Besides, the inhibition at 1 µM in data set [5] amounted to 74%; in data set [6], 75%.
